From article PMC8594567 (Journal of the American Chemical Society, 2021)
Where two headings read alike, the source gives them in different places.

Legend:
CYP3A4^F108L = CYP3A4^F108L (Homo sapiens, UniProt P08684, F108L); assay: Cell-based P450-Glo CYP3A mutant inhibition assay, CYP3A4 F108L; conditions: relative to CYP3A4^WT; 293T/17 cells
CYP3A4^D214G = CYP3A4^D214G (Homo sapiens, UniProt P08684, D214G); assay: Cell-based P450-Glo CYP3A mutant inhibition assay, CYP3A4 D214G; conditions: 293T/17 cells
CYP3A5 G480L = CYP3A5 G480L (Homo sapiens, UniProt P20815, G480L); assay: Cell-based P450-Glo CYP3A mutant inhibition assay, CYP3A5 G480L; conditions: G480L substitution; 293T/17 cells
CYP3A5 G480S = CYP3A5 G480S (Homo sapiens, UniProt P20815, G480S); assay: Cell-based P450-Glo CYP3A mutant inhibition assay, CYP3A5 G480S; conditions: G480S substitution; 293T/17 cells
CYP3A4 = CYP3A4 (Homo sapiens, UniProt P08684); assay: UV-Vis spectroscopy binding assay, CYP3A4; conditions: for increase in Ks on removal of the region B group: CYP3A4, region B-deleted analog vs parent
CYP3A4^WT = CYP3A4^WT (Homo sapiens, UniProt P08684); assay: Cell-based P450-Glo CYP3A mutant inhibition assay, CYP3A4 WT; conditions: 293T/17 cells; also prior data ref 30
CYP3A5^G214A/G480A = CYP3A5^G214A/G480A (Homo sapiens, UniProt P20815, G214A/G480A); assay: Cell-based P450-Glo CYP3A mutant inhibition assay, CYP3A5 G214A/G480A; conditions: 0.08–20 μM CBZ; 293T/17 cells
CYP3A5 [1] = biological target: T1, CYP3A5 (Homo sapiens, UniProt P20815); assay: Time-dependent inhibition assay; type: biochemical; conditions: pre-incubation 0 or 30 mins at room temperature
CYP3A5^G480A = CYP3A5^G480A (Homo sapiens, UniProt P20815, G480A); assay: Cell-based P450-Glo CYP3A mutant inhibition assay, CYP3A5 G480A; conditions: 293T/17 cells
purified human CYP3A5 [2] = biological target: T2, purified human CYP3A5 (Homo sapiens, UniProt P20815); conditions: 10 min
purified human CYP3A4 [3] = biological target: T3, purified human CYP3A4 (Homo sapiens, UniProt P08684); assay: Biochemical P450-Glo CYP3A inhibition assay, CYP3A4
CYP3A5 [4] = biological target: T1, CYP3A5; assay: UV-Vis spectroscopy binding assay, CYP3A5
purified human CYP3A5 [5] = biological target: T2, purified human CYP3A5; assay: Biochemical P450-Glo CYP3A inhibition assay, CYP3A5
CYP3A5 [6] = biological target: T1, CYP3A5; assay: in vitro
purified human CYP3A4 [7] = biological target: T3, purified human CYP3A4; conditions: 10 min

SMILES: CCC(=O)O[C@]1(C(=O)CCl)[C@@H](C)C[C@H]2[C@@H]3CCC4=CC(=O)C=C[C@]4(C)[C@@]3(F)[C@@H](O)C[C@@]21C [CBZ, Clobetasol propionate]
- effect of the F108L substitution on inhibitory potency (CYP3A4^F108L): substantially weakened the inhibitory potency
- inhibition compared with CYP3A4^WT (CYP3A4^D214G): identically
- reduction in potency vs WT (CYP3A5 G480L): at least 20 fold
- reduction in potency vs WT (CYP3A5 G480S): at least 20 fold
- increase in Ks on removal of the region B group (CYP3A4): approximately 20 fold
- CYP3A4 inhibition (CYP3A4^WT): can be inhibited at high CBZ concentrations
- effect on enzyme activity (CYP3A5^G214A/G480A): weakly activated
- time-dependent inhibition of CYP3A5 (CYP3A5 [1]): not time-dependent inhibitors of CYP3A5
- inhibition compared with CYP3A5^WT (CYP3A5^G480A): to the same extent as was CYP3A5^WT
- CYP3A5 inhibition (purified human CYP3A5 [2]): potent and selective inhibitor of CYP3A5

SMILES: CCC(=O)OCC(=O)[C@@]1(OC(=O)CC)[C@@H](C)C[C@H]2[C@@H]3CCC4=CC(=O)C=C[C@]4(C)[C@@]3(F)[C@@H](O)C[C@@]21C [betamethasone dipropionate]
- CYP3A5 inhibition (purified human CYP3A5 [2]): consistently weaker CYP3A5 inhibition

SMILES: C[C@H]1C[C@H]2[C@@H]3CCC4=CC(=O)C=C[C@]4(C)[C@@]3(F)[C@@H](O)C[C@]2(C)[C@@]1(O)C(=O)CCl [clobetasol, Clobetasol]
- IC50 (purified human CYP3A4 [3]; purified full-length CYP3A4, luciferin-IPA): 13 ± 4 µM
- Ks relative to the counterpart with region B group (CYP3A5 [4]; dexamethasone acetate vs difluprednate, clobetasol vs CBZ, Ks higher): > 100 fold
- CYP3A5 inhibition (purified human CYP3A5 [5]; P450-Glo biochemical assay): failed to inhibit CYP3A5 even at the highest concentration tested

SMILES: CCCC(=O)O[C@]1(C(=O)CCl)[C@@H](C)C[C@H]2[C@@H]3CCC4=CC(=O)C=C[C@]4(C)[C@@]3(F)C(=O)C[C@@]21C [clobetasone butyrate, Clobetasone butyrate]
- CYP3A4 inhibition (purified human CYP3A4 [3]; P450-Glo biochemical assay): slightly enhanced CYP3A4 inhibition
- Ks for CYP3A4 compared with CBZ (CYP3A4): maintained similar Ks value
- weaker CYP3A5 inhibition than CBZ (IC50 ratio) (purified human CYP3A5 [5]; IC50 of analog relative to CBZ): approximately 5 fold

SMILES: C[C@@H]1C[C@H]2[C@@H]3CCC4=CC(=O)C=C[C@]4(C)[C@@]3(F)[C@@H](O)C[C@]2(C)[C@H]1C(=O)CO [desoximetasone]
- CYP3A5 inhibition (purified human CYP3A5 [2]): no or weaker CYP3A5 inhibition than that of CBZ

SMILES: CC(=O)OCC(=O)[C@@]1(O)[C@H](C)C[C@H]2[C@@H]3CCC4=CC(=O)C=C[C@]4(C)[C@@]3(F)[C@@H](O)C[C@@]21C [dexamethasone acetate]
- inhibition at 10 min, 300 µM (CYP3A5 [6]): 35%
- Ks relative to the counterpart with region B group (CYP3A5 [4]; human, pH 7.4): > 100 fold

SMILES: CC(=O)OCC(=O)[C@@]1(OC(C)=O)[C@@H](C)C[C@H]2[C@@H]3C[C@H](F)C4=CC(=O)C=C[C@]4(C)[C@@]3(F)[C@@H](O)C[C@@]21C [diflorasone]
- CYP3A4 inhibition (purified human CYP3A4 [7]): still capable of inhibiting CYP3A4 at high concentrations
- CYP3A5 inhibition (purified human CYP3A5 [2]): no or weaker CYP3A5 inhibition than that of CBZ

SMILES: CCCC(=O)O[C@]1(C(=O)COC(C)=O)CC[C@H]2[C@@H]3C[C@H](F)C4=CC(=O)C=C[C@]4(C)[C@@]3(F)[C@@H](O)C[C@@]21C [difluprednate]
- increase in Ks on removal of the region B group (CYP3A5 [4]; human, pH 7.4): > 100 fold
- increase in Ks on removal of the region B group (CYP3A4): 3 fold
- weakening of CYP3A4 inhibition on deleting the region B group (purified human CYP3A4 [7]): approximately 10 fold
- CYP3A5 inhibition (purified human CYP3A5 [2]): strongest and most selective CYP3A5 inhibitor among all compounds we tested

SMILES: CCOC(=O)O[C@]1(C(=O)COC(=O)CC)CC[C@H]2[C@@H]3CCC4=CC(=O)C=C[C@]4(C)[C@H]3[C@@H](O)C[C@@]21C [prednicarbate, Prednicarbate]
- CYP3A5 inhibition (purified human CYP3A5 [2]): consistently weaker CYP3A5 inhibition
